Measured values published in US20070270436A1, “NOVEL AMINO- AND IMINO-ALKYLPIPERAZINES” (Recordati Ireland Limited, priority 2006, published 2007).
Where two headings read alike, the source gives them in different places.

What was measured:
5-HT1A receptors = target: T1, 5-HT1A receptors (Rattus norvegicus, UniProt P19327); assay: Inhibition of serotonergic syndrome (forepaw treading) induced by 8-OH-DPAT in rats (post-synaptic antagonism); format: in vivo; conditions: rat, 10 mg/kg p.o.
T1 construct: from tissue; host or cells: living male Sprague-Dawley rats (whole animal, behavioural read-out)
T1 sequence (P19327 1-422): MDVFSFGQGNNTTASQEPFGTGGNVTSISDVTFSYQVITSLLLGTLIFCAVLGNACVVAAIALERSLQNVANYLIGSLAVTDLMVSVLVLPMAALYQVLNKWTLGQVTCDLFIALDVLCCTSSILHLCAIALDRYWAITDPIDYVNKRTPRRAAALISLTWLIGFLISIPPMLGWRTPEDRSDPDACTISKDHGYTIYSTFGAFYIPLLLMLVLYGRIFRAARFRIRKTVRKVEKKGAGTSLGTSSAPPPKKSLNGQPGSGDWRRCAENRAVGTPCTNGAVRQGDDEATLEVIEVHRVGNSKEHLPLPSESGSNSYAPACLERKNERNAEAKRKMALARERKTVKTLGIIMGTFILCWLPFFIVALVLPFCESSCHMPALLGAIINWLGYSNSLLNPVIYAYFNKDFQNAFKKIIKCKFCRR
Description: The inhibitory effect of 5-HT1A-receptor antagonists on stereotyped forepaw treading induced in rats by subcutaneous injection of 8-OH-DPAT was evaluated by the method of Tricklebank (Tricklebank et al., Eur. J. Pharmacol., 117: 15, 1985) with minor modifications as described below.
Male Sprague-Dawley rats [Crl: CD® (SD) IGS BR] weighing 150-175 g from Charles River Italia were used. The animals were housed with free access to food and water and maintained on a forced 12-hour-light/12-hour-dark cycle at 22-24° C. of temperature. On the day of the experiment, the rats were placed singly in clear plastic containers, 10-15 minutes before oral administration of the vehicle or compounds to be tested. For evaluation of antagonistic activity, the compounds were administered 1 and 4 hours before induction of stereotypy by 8-OH-DPAT (1 mg/kg subcutaneously). Observation sessions lasted 30 seconds and began 3 minutes after 8-OH-DPAT treatment and were repeated every 3 minutes over a period of 15 minutes.
The appearance of the symptoms induced by postsynaptic stimulation of 5-HT1A receptors was noted, and the intensity was scored using an intensity scale in which: 0=absent, 1=equivocal, 2=present and 3=intense. Behavioural scores for treated rats were accumulated throughout the observation time (5 observation periods) and expressed as mean values of 4 rats/dose. Change in mean values of treated animals in comparison with control (vehicle) group, expressed as per-cent inhibition, was used to quantify the antagonistic activity.
In order to quantitate the potency of the compound of Example 24 in inhibiting the stereotypy (forepaw treading) induced by 8-OH-DPAT, an ED50 value (dose inhibiting by 50% the forepaw treading) was evaluated by means of linear regression using the least square method.

[1] = target: T2, human 5HT1A-serotonergic receptor (Homo sapiens, UniProt P08908); assay: Radioligand binding to recombinant 5-HT1A receptor ([3H]8-OH-DPAT, HeLa cell membranes); conditions: 1 nM [3H]8-OH-DPAT; Ki from IC50 by the Cheng equation; read-out: Ki (nM), binding affinity for 5HT1A receptor
T2 construct: expressed in transfected cells; host or cells: HeLa (human), stably transfected; membranes
T2 sequence (P08908 1-422): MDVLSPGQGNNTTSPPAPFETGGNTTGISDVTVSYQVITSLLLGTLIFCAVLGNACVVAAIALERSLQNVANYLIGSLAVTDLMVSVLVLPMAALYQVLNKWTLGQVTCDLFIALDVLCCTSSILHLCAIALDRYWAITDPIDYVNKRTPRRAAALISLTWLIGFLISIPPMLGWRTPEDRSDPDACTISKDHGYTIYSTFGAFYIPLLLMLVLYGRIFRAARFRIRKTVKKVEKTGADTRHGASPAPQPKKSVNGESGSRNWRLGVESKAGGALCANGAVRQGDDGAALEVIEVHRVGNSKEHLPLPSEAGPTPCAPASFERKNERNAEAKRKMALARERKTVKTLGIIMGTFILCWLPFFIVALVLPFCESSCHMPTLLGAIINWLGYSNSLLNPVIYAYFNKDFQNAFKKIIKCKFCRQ
Description: Genomic clone G-21 encoding the human 5HT1A-serotonergic receptor was stably transfected in a human cell line (HeLa). HeLa cells were grown as monolayers in Dulbecco's modified Eagle medium (DMEM), containing 10% fetal bovine serum and gentamycin (100 μg/ml) at 37° C. in a humidified atmosphere of 5% CO2 and air. The cells were detached from the growth flask at 95% confluence by a cell scraper and were lysed in cold 5 mM Tris and 5 mM EDTA buffer (pH 7.4). The homogenates were centrifuged at 40000×g×20 minutes and the pellets were resuspended in a small volume of cold 5 mM Tris and 5 mM EDTA buffer (pH 7.4) and immediately frozen and stored at −70° C. until use. On the day of experiment, the cell membranes were resuspended in incubation buffer: 50 mM Tris (pH 7.4), 2.5 mM MgCl2, 10 μM pargyline (Fargin et al., Nature 335, 358-360, 1988). The membranes were incubated in a final volume of 0.32 ml for 30 minutes at 30° C. with 1 nM [^3H]8-OH-DPAT, in the absence or presence of the test compounds. Non-specific binding was determined in the presence of 10 μM 5-HT. Incubation was stopped by addition of cold Tris buffer and rapid filtration through UniFilter GF/C plate.
The affinity of the tested compounds was evaluated as inhibition of specific binding of the radioligand to 5-HT1A receptor (IC50) by using the non-linear curve-fitting program Allfit (De Lean et al., Am. J. Physiol. 235, E97-E102 (1978)). The IC50 value was converted to an affinity constant (Ki) by the equation of Cheng et al., Biochem. Pharmacol. 22, 3099-3108 (1973).

[2] = test system: rhythmic bladder-voiding contractions; assay: Rhythmic bladder-voiding contractions induced by bladder filling in anaesthetised rats; format: in vivo, rat; conditions: intravenous administration
Description: Female Sprague-Dawley rats weighing 225-275 g (Crl: CD® (SD) IGS BR, Charles River Italia) were used. The animals were housed with free access to food and water and maintained on a forced 12-hour alternating light-dark cycle at 22-24° C. for at least one week, except during the experiment. The activity on rhythmic bladder voiding contractions was evaluated according to the method of Dray (Dray J., Pharmacol. Methods, 13:157, 1985), with some modifications as in Guarneri (Guarneri, Pharmacol. Res. 27:173, 1993). Briefly, the rats were anaesthetised by subcutaneous injection of 1.25 g/kg (5 ml/kg) urethane, after which the urinary bladder was catheterised via the urethra using PE 50 polyethylene tubing filled with physiological saline. The catheter was tied in place with a ligature around the external urethral orifice and was connected to conventional pressure transducers (Statham P23 ID/P23 XL). […] The bladder was then filled via the recording catheter by incremental volumes of warm (37° C.) saline until reflex bladder-voiding contractions occurred (usually 0.8-1.5 ml). For intravenous injection of bioactive compounds, PE 50 polyethylene tubing filled with physiological saline was inserted into the jugular vein.
From the cystometrogram, the number of contractions recorded 15 minutes before (basal values) and after treatment, as well as the mean amplitude of these contractions (mean height of the peaks in mmHg), was evaluated.
Since most compounds produced an effect that was relatively rapid in onset and led to a complete cessation of bladder contractions, bioactivity was conveniently estimated by measuring the duration of bladder quiescence (i.e., the time during which no contractions occurred). The number of tested animals showing a reduction in the number of contractions higher than 30% of that observed in the basal period was recorded too.
The extrapolated doses which induced a reduction in the number of contractions greater than 30% in 50% of the treated rats (ED50) were also evaluated by the method of Bliss (Bliss C. I., Quart J. Pharm. Pharmacol. 11, 192-216, 1938).

[3] = 1 h before 8-OH-DPAT 1 mg/kg s.c., read-out: % Inhibition of forepaw treading, 1 h
[4] = 4 h before 8-OH-DPAT 1 mg/kg s.c., read-out: % Inhibition of forepaw treading, 4 h

Row | SMILES | inhibition at 10 mg/kg (5-HT1A receptors; [3]) | inhibition at 10 mg/kg (5-HT1A receptors; [4]) | Ki [1] | ED50 ([2]; Rattus norvegicus, read-out: ED50 (frequency) (extrapolated dose inducing a reduction of the number of contractions >30% in 50% of treated rats)) | ED10 min (extrapolated dose inducing 10 minutes of disappearance of the contractions) [2]
1 | CONC(C1CCCCC1)C(CCN1CCN(c2ccccc2OC)CC1)c1ccccc1F (mixture of isomers) [Example 4, N-{1-Cyclohexyl-2-(2-fluorophenyl)-4-[4-(2-methoxyphenyl)piperazin-1-yl]butyl}-O-methylhydroxylamine] | 86% | 68% | 0.88 nM |  | 
2 | COc1ccccc1N1CCN(CC[C@@H](c2ccccc2F)[C@@H](C2CCCCC2)N(C)C)CC1 (racemic) [Example 11, {(RS,SR)-1-Cyclohexyl-2-(2-fluorophenyl)-4-[4-(2-methoxyphenyl)-piperazin-1-yl]butyl}dimethylamine] | 56% | 56% | 1 nM |  | 
3 | Cc1c(-c2ccccc2)oc2c(C(=O)OCCN3CCCCC3)cccc2c1=O [Flavoxate, flavoxate] |  |  |  | 2.65 mg/kg | >10 mg/kg
4 | CON[C@H](C1CCCCC1)[C@H](CCN1CCN(c2ccccc2OC)CC1)c1ccccc1F (racemic) [Example 4b, (RS,RS)-N-{1-Cyclohexyl-2-(2-fluorophenyl)-4-[4-(2-methoxyphenyl)piperazin-1-yl]butyl}-O-methylhydroxylamine] | 71% | 67% |  |  | 
5 | COc1ccccc1N1CCN(CCC(C(=NO)C2CCCCC2)c2ccccc2F)CC1 (mixture of isomers) [Example 1, 1-Cyclohexyl-2-(2-fluorophenyl)-4-[4-(2-methoxyphenyl)-piperazin-1-yl]butan-1-one oxime] | 71% |  | 0.16 nM |  | 
6 | COc1ccccc1N1CCN(CC[C@@H](c2ccccc2F)[C@H](NC(=O)N(C)C)C2CCCCC2)CC1 (racemic) [Example 21, 3-{(RS,SR)-1-Cyclohexyl-2-(2-fluorophenyl)-4-[4-(2-methoxyphenyl)-piperazin-1-yl]butyl}-1,1-dimethylurea] | 94% | 65% | 2.1 nM |  | 
7 | COc1ccc(Br)c(CN2CCN(CCC(c3ccccc3F)C(C3CCCCC3)N(C)C(C)=O)CC2)c1 (centres unmarked) [Example 46, N-[4-[4-(2-Bromo-5-methoxybenzyl)piperazin-1-yl]-1-cyclohexyl-2-(2-fluorophenyl)butyl]-N-methylacetamide] |  |  | 0.8 nM |  | 
8 | COc1ccccc1N1CCN(CC[C@H](c2ccccc2F)[C@@H](NC(=S)N(C)C)C2CCCCC2)CC1 (single isomer, unassigned) [Example 24B, 3-{(1S,2R) or (1R,2S)-1-Cyclohexyl-2-(2-fluorophenyl)-4-[4-(2-methoxyphenyl)piperazin-1-yl]butyl}-1,1-dimethylthiourea] |  |  | 4.2 nM |  | 
9 | O=CNC(C1CCCCC1)C(CCN1CCN(c2cccc3[nH]ccc23)CC1)c1ccccc1F (centres unmarked) [Example 52, N-{1-Cyclohexyl-2-(2-fluorophenyl)-4-[4-(1H-indol-4-yl)piperazin-1-yl]butyl}formamide] |  |  | 2.3 nM |  | 
10 | CNC(C1CCCCC1)C(CCN1CCN(Cc2cc(OC)ccc2Br)CC1)c1ccccc1F (centres unmarked) [Example 44, 4-[4-(2-Bromo-5-methoxybenzyl)piperazin-1-yl]-1-cyclohexyl-2-(2-fluorophenyl)butylmethylamine] |  |  | 0.4 nM |  | 
11 | COc1ccccc1N1CCN(CCC(c2ccccc2F)C(C2CCCCC2)N(Cc2ccco2)Cc2ccco2)CC1 (centres unmarked) [Example 15] |  |  | 7.28 nM |  | 
